Read-outs that look alike come from different tables or passages of the source.
Assays:
[1] = tested on: MS21 (low-passage patient-derived GBM line); experiment: Drug screening of MS21 tumor foci on OBSCs; type: cell-based, human; conditions: for AUC: area under the dose-response curve, trapezoidal rule
Summary of the method: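 Tumor foci (25,000 cells) were seeded onto organotypic brain slice cultures 2 h after slicing, two per slice; one day later six drug concentrations were added to the medium or X-ray was applied. Bioluminescence was read 3 days after treatment, normalized to day-one fluorescence and to untreated controls.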

[2] = tested on: U373KO (RAD18 knockout of U373WT via CRISPR); experiment: Drug screening of U373KO tumor foci on OBSCs; type: cell-based, human; conditions: U373 KO on OBSCs; for EC50 / EC90 / IC50: Homo sapiens, U373 MG; for EC50: dose required to kill 50% of the tumor; for EC90: dose required to kill 90% of the tumor; for IC50: dosed day 1, survival via bioluminescence day 4, linear interpolation; for AUC: area under the dose-response curve, trapezoidal rule; for EC10: dose required to kill 10% of the tumor; for EC25: dose required to kill 25% of the tumor; for Slope: slope through the EC50
Summary of the method: (§1)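 Drug effects on tumor foci grown on brain slices are quantified by bioluminescence three days after treatment, relative to untreated foci and day-one fluorescence. Efficacy versus slice toxicity is combined into a weighted drug sensitivity score.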

[3] = tested on: GBM8 (high-passage patient-derived GBM line); experiment: Drug screening of GBM8 tumor foci on OBSCs; type: cell-based, human; conditions: for AUC: area under the dose-response curve, trapezoidal rule; for EC10: dose required to kill 10% of the tumor; for EC25: dose required to kill 25% of the tumor; for EC75: dose required to kill 75% of the tumor; for Slope: slope through the EC50; for EC50 / EC90 / IC50: Homo sapiens
Summary of the method: as §1

[4] = tested on: PIS patient tumor tissue (intracranial sarcoma); experiment: Drug screening of uncultured patient tumor tissue PIS on OBSCs; type: cell-based, human; conditions: Homo sapiens, PIS on OBSCs; for EC50: dose required to kill 50% of the tumor; for EC90: dose required to kill 90% of the tumor
Summary of the method: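 Uncultured patient tumour tissue, transduced with mCherry-FLuc lentivirus, engrafted on organotypic brain slice cultures (OBSCs); six drug concentrations or X-ray dosing given one day after seeding, n = 4 foci per concentration. Bioluminescence with luciferin read three days post-treatment, normalised to day one and untreated controls; drug sensitivity score combines weighted therapeutic-window parameters versus OBSC toxicity (−100 to 100).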

[5] = tested on: LN229 (established GBM line); experiment: Drug screening of LN229 tumor foci on OBSCs; type: cell-based, human; conditions: for EC50 / EC90 / IC50: Homo sapiens; for EC50: LN-229, dose required to kill 50% of the tumor; for EC90: LN-229, dose required to kill 90% of the tumor; for IC50: LN-229, dosed day 1, survival via bioluminescence day 4, linear interpolation; for AUC: area under the dose-response curve, trapezoidal rule; for EC10: dose required to kill 10% of the tumor; for EC25: dose required to kill 25% of the tumor; for Slope: slope through the EC50
Summary of the method: as §1

[6] = tested on: MG-II patient tumor tissue (WHO grade II meningioma); experiment: Drug screening of uncultured patient tumor tissue MG-II on OBSCs; type: cell-based; conditions: Homo sapiens; for EC90: dose required to kill 90% of the tumor
Protocol: (§2) Tumor cells were seeded onto OBSCs 2h after slicing as described above. One day after tumor seeding, six concentrations of each drug were diluted in the media underneath each culture insert, or XRad was applied using an X-Rad 320 Precision X-ray machine (n = 4 tumor foci per concentration; n ≥ 24 tumor foci per drug per cell line). Three days after treatment, the bioluminescence of live tumor cells was measured using an AMI optical imager (Spectral Instruments) and dose-response curves were generated. Tumor survival was normalized to day one tumor fluorescence and compared to an untreated control group.
(§3) To engraft onto OBSCs, the cryopreserved/thawed or fresh brain tumor tissue was filtered through a 100 μm cell strainer. Each 50 mg of tissue was transfected with 1mL mcherry-FLuc Lentivirus at 1.5e7 vg/ml with 1μL polybrene for 4h at 37°C. After incubation, the brain tumor tissue was washed with PBS three times to remove the residual virus and reconstituted in PBS with a final volume of 150 μL. Then the tissue solution was engrafted atop OBSCs at ∼0.5 mg tissue in 3 μL of PBS on each hemisphere of the slice. The OBSC engrafted with patient tumor tissue was incubated at 37°C with 5% CO2 and 95% humidity. The BSM was changed after 24h and subsequently every 3 days. Tumor treatment studies were executed as described above for tumor lines. The viability of the patient tissue was measured by an AMI optical imaging system with the addition of 1.5 mg/mL luciferin underneath the culture insert.
(§4) Several weighted parameters were factored into an overall drug sensitivity score.
(§5) For DSS parameters 1–6, therapeutic windows were calculated by comparing OBSC toxicity and tumor response at the doses where tumor kill passed through the DSS parameter (Table S1 and S3). For DSS parameter 7, the therapeutic window was calculated by comparing the slopes through the tumor EC50 and the OBSC tox EC50. For DSS parameter 8, the therapeutic window was calculated by comparing the areas under tumor kill and OBSC tox curves. Normalized therapeutic window ratios for DSS parameters 1–8 within each drug-tumor-OBSC interaction were calculated in the following manner: within each window, values ranged from +1 to −1, where values approaching +1 signify increasing tumor kill relative to normal tissue toxicity, and values approaching −1 indicate agents where tumors remained highly viable while toxicity to the normal OBSC tissue was elevated. DSS parameters 9–11 were determined based on the behavior of the tumor in response to the drug, as defined above.
(§6) All individually weighed parameters were added together to generate the DSS. Overall DSS from 0 to 100 signify increasing efficacy in tumor kill relative to OBSC toxicity, while scores from 0 to −100 describe scenarios in which tumors thrive more effectively than OBSCs for a given treatment. Dose-response values were calculated via linear interpolation of raw data, not from best-fit curve equations.

[7] = tested on: PGBM-R patient tumor tissue (recurrent tumor from same patient as PGBM); experiment: Drug screening of uncultured patient tumor tissue PGBM-R on OBSCs; type: cell-based, human; conditions: for EC90: Homo sapiens, PGBM-R on OBSCs, dose required to kill 90% of the tumor
Protocol: as §2, §3, §4, §5, §6

[8] = tested on: PGBM patient tumor tissue (pediatric GBM); experiment: Drug screening of uncultured patient tumor tissue PGBM on OBSCs; type: cell-based, human; conditions: for EC50 / EC90: Homo sapiens, PGBM on OBSCs; for EC50: dose required to kill 50% of the tumor; for EC90: dose required to kill 90% of the tumor; for DSS (drug sensitivity score): PGBM patient tissue, scale -100 to +100
Protocol: as §2, §3, §4, §5, §6

[9] = tested on: U373WT (wild-type established GBM line); experiment: Drug screening of U373WT tumor foci on OBSCs; type: cell-based, human; conditions: U373 WT on OBSCs; for EC50 / EC90 / IC50: Homo sapiens, U373 MG; for EC50: dose required to kill 50% of the tumor; for EC90: dose required to kill 90% of the tumor; for IC50: dosed day 1, survival via bioluminescence day 4, linear interpolation; for AUC: area under the dose-response curve, trapezoidal rule; for EC10: dose required to kill 10% of the tumor; for EC25: dose required to kill 25% of the tumor; for Slope: slope through the EC50
Summary of the method: as §1

[10] = tested on: MB231Br (breast cancer metastasis to brain); experiment: Drug screening of MB231Br tumor foci on OBSCs; type: cell-based, human; conditions: for EC50 / EC90 / IC50: Homo sapiens; for EC50: dose required to kill 50% of the tumor; for EC90: dose required to kill 90% of the tumor; for IC50: MB231Br on OBSCs, dosed day 1, survival via bioluminescence day 4, linear interpolation; for AUC: area under the dose-response curve, trapezoidal rule
[11] = tested on: PDIPG (low-passage pediatric patient-derived line); experiment: Drug screening of PDIPG tumor foci on OBSCs; type: cell-based, human; conditions: for AUC: area under the dose-response curve, trapezoidal rule; for EC10: dose required to kill 10% of the tumor; for Slope: slope through the EC50
Summary of the method: as §1

## Cn1nnc2c(C(N)=O)ncn2c1=O [Temozolomide]
[1]; MS21 on OBSCs
  Killing at highest dose: -8.20E-01 fraction of tumor population killed
  AUC: 2.37E+03
[1]; MS21 on OBSCs, dose required to kill 25% of the tumor
  EC25: 417 µM
[1]; MS21 on OBSCs, dose required to kill 75% of the tumor
  EC75: 1250 µM
[1]; MS21 on OBSCs, slope through the EC50
  Slope: 5.47E-04
[2]
  EC50: 1160 µM
  EC90: > 10 µM
  IC50: 1160 µM
  Killing at highest dose: 5.40E-01 fraction of tumor population killed
  AUC: 8.89E+02
  EC10: 3.85 µM
  EC25: 9.62 µM
  Slope: -8.67E-04
[3]; GBM8 on OBSCs
  Killing at highest dose: 1.00E+00 fraction of tumor population killed
  AUC: 9.52E+01
  EC10: 1.52 µM
  EC25: 3.79 µM
  EC75: 31.2 µM
  Slope: -6.60E-02
[3]; GBM8 on OBSCs, dose required to kill 50% of the tumor, read-out: EC50
  EC50: 7.58 µM
[3]; GBM8 on OBSCs, dose required to kill 90% of the tumor, read-out: EC90
  EC90: 167 µM
[3]; GBM8 on OBSCs, dosed day 1, survival via bioluminescence day 4, linear interpolation, read-out: IC50
  IC50: 7.6 µM
[4]
  EC50: > 100 µM
  EC90: > 10 µM
[5]
  Killing at highest dose: 3.50E-01 fraction of tumor population killed
  EC50: > 10 µM
  EC90: > 10 µM
  IC50: > 10 µM
  AUC: 1.53E+03
  EC10: 59.4 µM
  EC25: 460 µM
  Slope: -4.00E-05
[6]; dose required to kill 50% of the tumor
  EC50: > 100 µM
[6]
  EC90: > 10 µM
[7]
  EC90: > 10 µM
[7]; PGBM-R patient tissue, scale -100 to +100
  DSS (drug sensitivity score): 17
[8]
  EC50: > 100 µM
  EC90: > 10 µM
  DSS (drug sensitivity score): 26
[9]
  EC50: > 10 µM
  EC90: > 10 µM
  IC50: > 10 µM
  Killing at highest dose: 2.20E-01 fraction of tumor population killed
  AUC: 1.52E+03
  EC10: 67.3 µM
  EC25: 96.2 µM
  Slope: -9.14E-06
[10]; MB231BR on OBSCs
  EC50: > 10 µM
  EC90: > 10 µM
  Killing at highest dose: -3.30E-01 fraction of tumor population killed
  AUC: 2.58E+03
[10]
  IC50: > 10 µM
[11]; Homo sapiens, PDIPG on OBSCs, dose required to kill 90% of the tumor, read-out: EC90
  EC90: > 10 µM
[11]; Homo sapiens, PDIPG on OBSCs, dosed day 1, survival via bioluminescence day 4, linear interpolation, read-out: IC50
  IC50: > 10 µM
[11]; PDIPG on OBSCs
  Killing at highest dose: 2.90E-01 fraction of tumor population killed
  AUC: 1.88E+03
  EC10: 5 µM
  Slope: -4.80E-05
[11]; PDIPG on OBSCs, dose required to kill 25% of the tumor
  EC25: 667 µM

## CC(=O)Nc1cccc(-n2c(=O)n(C3CC3)c(=O)c3c(Nc4ccc(I)cc4F)n(C)c(=O)c(C)c32)c1 [Trametinib]
[1]; Homo sapiens
  EC50: > 10 µM
  EC90: > 10 µM
  IC50: > 10 µM
[1]; MS21 on OBSCs
  Killing at highest dose: -5.00E-02 fraction of tumor population killed
  AUC: 1.26E+02
[2]
  EC50: > 10 µM
  EC90: > 10 µM
  IC50: > 10 µM
  Killing at highest dose: 3.10E-01 fraction of tumor population killed
  AUC: 8.91E+01
  EC10: 45.8 µM
  EC25: 84.5 µM
  Slope: -3.88E-03
[3]; GBM8 on OBSCs
  Killing at highest dose: 9.80E-01 fraction of tumor population killed
  AUC: 4.78E+00
  EC10: 0.0313 µM
  EC25: 0.0781 µM
  EC75: 0.779 µM
  Slope: -6.33E-01
[3]
  EC50: 0.384 µM
  EC90: 1.67 µM
  IC50: 0.38 µM
[4]
  EC50: > 100 µM
  EC90: > 10 µM
[5]
  Killing at highest dose: 5.60E-01 fraction of tumor population killed
  EC50: 18.6 µM
  EC90: > 10 µM
  IC50: 19 µM
  AUC: 4.96E+01
  EC10: 0.668 µM
  EC25: 3.46 µM
  Slope: -1.47E-02
[6]
  EC90: > 10 µM
[7]
  EC90: > 10 µM
[7]; PGBM-R relative to PGBM
  increase of DSS in the recurrent tumor: 58 points
[8]
  EC50: > 100 µM
  EC90: > 10 µM
  DSS (drug sensitivity score): 16
[8]; PGBM patient tissue on OBSCs, 72 h
  Killing at highest dose: about one-third
[9]
  EC50: > 10 µM
  EC90: > 10 µM
  IC50: > 10 µM
  Killing at highest dose: 4.80E-01 fraction of tumor population killed
  AUC: 5.40E+01
  EC10: 0.625 µM
  EC25: 2.16 µM
  Slope: -2.50E-04
[10]; MB231BR on OBSCs
  EC50: 0.784 µM
  EC90: > 10 µM
  Killing at highest dose: 7.00E-01 fraction of tumor population killed
  AUC: 3.32E+01
[10]
  IC50: 0.78 µM
[10]; MB231BR on OBSCs, slope through the EC50
  Slope: -2.78E-01
[11]; Homo sapiens
  EC50: > 10 µM
  EC90: > 10 µM
  IC50: > 10 µM
[11]; PDIPG on OBSCs
  Killing at highest dose: 1.70E-01 fraction of tumor population killed
  AUC: 8.73E+01
  EC10: 30 µM
  Slope: -1.00E-03

From paper PMC10313921, “A living ex vivo platform for functional, personalized brain cancer diagnosis” (Cell Reports Medicine, 2023)
